Each structure is given as a SMILES string. pKd: −log10 of the molar value. Where two headings read alike, the source gives them in different places.

One may read the pKd as the negative decadic logarithm of the Kd, by convention in mol/L. High values mean a small Kd, low ones a large Kd.

Experiment [1] deals with T1, Mcl-1 (myeloid cell leukemia-1) (Homo sapiens, UniProt Q07820). The experiment can be described thus: 1H-15N HSQC NMR titration. The experiment is classed as binding.
Experiment [2] concerns the target T1, Mcl-1 (myeloid cell leukemia-1). The experiment can be described thus: 1H-15N HSQC NMR titration. The experiment is classed as binding. The source holds these as a separate data set.

T1 sequence (Q07820 172-327): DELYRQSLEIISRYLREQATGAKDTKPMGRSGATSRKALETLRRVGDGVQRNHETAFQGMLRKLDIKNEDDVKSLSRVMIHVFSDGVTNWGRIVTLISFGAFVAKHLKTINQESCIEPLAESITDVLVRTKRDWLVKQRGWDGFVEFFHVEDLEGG

`O=C(O)c1ccc(-n2nc(-c3ccccc3O)nc2-c2ccccc2O)cc1` [Deferasirox]: the pKd in experiment [1] was ~3.52.

For `Cc1cccc(Nc2ccncc2S(=O)(=O)NC(=O)NC(C)C)c1` [Torsemide], the pKd in experiment [2] was ~3.00.

The values above are taken from article PMC8688747 (Drug Design, Development and Therapy, 2021).
